Assay [1] deals with ECV304. Kind of assay: MTT assay, inhibition of proliferation of ECV304 endothelial cells (72 hours). The settings on record: concentration causing 50% cytotoxicity. The class given is cell-based, human. The method, then:
30µl of ECV304 cell suspension (50 x 10^4 cells/ml in RPMI 1640 containing 10% FBS) followed by 150µl of medium was added to the wells of a 96-well tissue culture plate (Nunc, Denmark) and incubated (37°C, 5% CO2) overnight. […] Each concentration was plated in triplicates. 20µl of medium alone was added to control wells. After 72 hours of incubation an MTT assay (Mosmann, 1983) was performed and percentage inhibition in proliferation of treated cells was calculated with respect to control cells.

For assay [2], the system named is DU145. Kind of assay: Cytotoxicity assay for tumor cells, prostate DU145. The class given is cell-based. The settings on record: concentration causing 50% cytotoxicity. An excerpt:
(§1) The cytotoxicity assays for tumor cells have been described in detail in our application No. 09/040,856 filed in US on March 18, 1998. […] Table - I

For assay [3], the system named is L132. Kind of assay: Cytotoxicity assay for tumor cells, lung L132. The settings on record: concentration causing 50% cytotoxicity. The class given is cell-based.
Text: as §1

Assay [4] deals with PA-1. Kind of assay: Cytotoxicity assay for tumor cells, ovary PA-1. The settings on record: concentration causing 50% cytotoxicity. Format: cell-based.
Text: as §1

The subject of assay [5] is HT-29. Kind of assay: Cytotoxicity assay for tumor cells, colon HT-29. The settings on record: concentration causing 50% cytotoxicity. Format: cell-based.
Text: as §1

Assay [6] deals with ECV304. Kind of assay: Tube-like-structure (TLS) formation of ECV304 cells on Matrigel. Format: cell-based, human. The settings on record: 24 - 48 hours, mean of five fields. The procedure: Matrigel (70 µl) was placed into each well of a 96-well culture plate at 4°C and was allowed to polymerize by incubation at 37°C for 30 min. ECV304 (1 x 10^4) cells were seeded on the Matrigel in 200 µl DMEM containing 10% FBS. […] Five different phase-contrast microscopic fields (4X) were viewed and total tube area of the tube-like-structures (TLS) measured using Video Pro 32 Image Analysis system. Percent reduction in total tube area was given as the mean of the data from five fields. Percent inhibition of TLS was calculated with reference to Controls(no drug). Table - III

Bounds are passed on as bounds.

Take `C=C(C)C1CCC2(C(=O)O)CCC3(C)C(CCC4C5(C)CCC(=NNc6ccccc6)C(C)(C)C5CCC43C)C12` (stereo not shown) [MJ353-RS]: the “Endothelial ECV304 (ED50)” value in assay [1] was found to be 2.4 µg/mL. In addition, the “Prostate DU145 (ED50)” value in assay [2] stood at 6.5 µg/mL. Also, in assay [3], the “Lung L132 (ED50)” value amounted to 4.5 µg/mL. Further, the “Ovary PA-1 (ED50)” value in assay [4] worked out at 5 µg/mL. Also, the “Colon HT-29 (ED50)” value in assay [5] is over 10 µg/mL.
Consider `COc1ccc(NNC2CCC3(C)C(CCC4(C)C3CCC3C5C(C(C)C)CCC5(C(=O)O)CCC34C)C2(C)C)cc1` (stereo not shown) [MJ912-RS], for which the “Endothelial ECV304 (ED50)” value in assay [1] came to 0.4 µg/mL. The “Prostate DU145 (ED50)” value in assay [2] was 8.5 µg/mL. The “Lung L132 (ED50)” value in assay [3] was over 4 µg/mL. For the same compound, the “Colon HT-29 (ED50)” value in assay [5] was determined as 0.35 µg/mL.
Taken in the same sequence, the figures for `CC(C)C1CCC2(C(=O)O)CCC3(C)C(CCC4C5(C)CCC(OC(=O)c6cc(F)cc(F)c6)C(C)(C)C5CCC43C)C12` (stereo not shown) [MJ935-RS] were 0.7 µg/mL, 3.2 µg/mL, 1.2 µg/mL and over 10 µg/mL.
On to `CC(C)C1CCC2(C(=O)O)CCC3(C)C(CCC4C5(C)CCC(OC(=O)c6ccc(F)cc6F)C(C)(C)C5CCC43C)C12` (stereo not shown) [MJ937-RS], for which, in assay [1], the “Endothelial ECV304 (ED50)” value turned out to be 0.7 µg/mL. The “Prostate DU145 (ED50)” value in assay [2] was 2.5 µg/mL. In assay [3], the “Lung L132 (ED50)” value is 1.1 µg/mL. Further, the “Ovary PA-1 (ED50)” value in assay [4] was 1.6 µg/mL. The “Colon HT-29 (ED50)” value in assay [5] amounted to 1.7 µg/mL. Also, in assay [6], the “% reduction in total tube area at concentration 0.5 µg/ml” value amounted to 16.7%, the “% reduction in total tube area at concentration 2 µg/ml” value (shortened to “% reduction … at concentration 2 µg/ml”) turned out to be 21% and the “% reduction in total tube area at concentration 4 µg/ml” value (“% reduction … at concentration 4 µg/ml” below) was 21.7%.
With `C=C(C)C1CCC2(C(=O)O)CCC3(C)C(CCC4C5(C)CCC(OC(=O)c6cccc(C(F)(F)F)c6)C(C)(C)C5CCC43C)C12` (stereo not shown) [MJ939-RS], in assay [1], the “Endothelial ECV304 (ED50)” value was determined as 0.9 µg/mL. The “Prostate DU145 (ED50)” value in assay [2] is over 10 µg/mL. In addition, the “Lung L132 (ED50)” value in assay [3] came to 2.7 µg/mL. For the same compound, the “Ovary PA-1 (ED50)” value in assay [4] is over 4 µg/mL. In assay [5], the “Colon HT-29 (ED50)” value was over 10 µg/mL.
Regarding `CC(C)C1CCC2(C(=O)O)CCC3(C)C(CCC4C5(C)CCC(OC(=O)c6ccccc6C(F)(F)F)C(C)(C)C5CCC43C)C12` (stereo not shown) [MJ943-RS], in assay [1], the “Endothelial ECV304 (ED50)” value worked out at 2.6 µg/mL. In addition, the “Prostate DU145 (ED50)” value in assay [2] was over 4 µg/mL. Further, in assay [3], the “Lung L132 (ED50)” value was found to be 4 µg/mL. Besides, in assay [4], the “Ovary PA-1 (ED50)” value is over 4 µg/mL. Besides, the “Colon HT-29 (ED50)” value in assay [5] was over 10 µg/mL.
Turning to `CC(C)C1CCC2(C(=O)O)CCC3(C)C(CCC4C5(C)CCC(N=Cc6ccc(F)c(F)c6)C(C)(C)C5CCC43C)C12` (stereo not shown) [MJ998-RS], in assay [1], the “Endothelial ECV304 (ED50)” value came out at 0.35 µg/mL. Besides, in assay [2], the “Prostate DU145 (ED50)” value stood at 2.2 µg/mL. Besides, the “Lung L132 (ED50)” value in assay [3] came to 2.5 µg/mL. In addition, the “Ovary PA-1 (ED50)” value in assay [4] came to 1.3 µg/mL. The “Colon HT-29 (ED50)” value in assay [5] stood at 4 µg/mL. In addition, in assay [6], the “% reduction in total tube area at concentration 0.5 µg/ml” value was found to be 21.1%, the “% reduction … at concentration 2 µg/ml” value came out at 13.4% and the “% reduction … at concentration 4 µg/ml” value is on record as 33.4%.
Consider `CC(C)C1CCC2(C(=O)O)CCC3(C)C(CCC4C5(C)CCC(N=Cc6ccc(F)cc6F)C(C)(C)C5CCC43C)C12` (stereo not shown) [MJ1065-RS], for which the “Endothelial ECV304 (ED50)” value in assay [1] is 2.4 µg/mL. Also, the “Prostate DU145 (ED50)” value in assay [2] worked out at 2.5 µg/mL. Moreover, in assay [3], the “Lung L132 (ED50)” value was 3.4 µg/mL. The “Ovary PA-1 (ED50)” value in assay [4] worked out at 1.3 µg/mL. Besides, the “Colon HT-29 (ED50)” value in assay [5] was determined as 4.9 µg/mL. In assay [6], the “% reduction in total tube area at concentration 0.5 µg/ml” value is listed as 23.4%, the “% reduction … at concentration 2 µg/ml” value is given as 16.7% and the “% reduction … at concentration 4 µg/ml” value stood at 46.7%.
For `CC(C)C1CCC2(C(=O)O)CCC3(C)C(CCC4C5(C)CCC(=NOCc6ccc([N+](=O)[O-])cc6)C(C)(C)C5CCC43C)C12` (stereo not shown) [MJ1098-RS], the “Endothelial ECV304 (ED50)” value in assay [1] stood at 0.6 µg/mL. In addition, in assay [2], the “Prostate DU145 (ED50)” value came to 1.5 µg/mL. Further, in assay [3], the “Lung L132 (ED50)” value worked out at 1.3 µg/mL. In addition, the “Ovary PA-1 (ED50)” value in assay [4] is 1.6 µg/mL. Also, the “Colon HT-29 (ED50)” value in assay [5] is 2.6 µg/mL. Besides, in assay [6], the “% reduction in total tube area at concentration 0.5 µg/ml” value was found to be 15%, the “% reduction … at concentration 2 µg/ml” value worked out at 7.5% and the “% reduction … at concentration 4 µg/ml” value is recorded as 10%.
On to `C=C(C)C1CCC2(C(=O)O)CCC3(C)C(CCC4C5(C)CCC(OC(=O)c6ccc(CCCCC)cc6)C(C)(C)C5CCC43C)C12` (stereo not shown) [MJ1104-RS], for which the “Endothelial ECV304 (ED50)” value in assay [1] came to 1.9 µg/mL. The “Prostate DU145 (ED50)” value in assay [2] was determined as 2 µg/mL. The “Lung L132 (ED50)” value in assay [3] worked out at 5.9 µg/mL. Also, the “Ovary PA-1 (ED50)” value in assay [4] was over 4 µg/mL. Also, the “Colon HT-29 (ED50)” value in assay [5] was 3.5 µg/mL.
Turning to `C=C(C)C1CCC2(C(=O)O)CCC3(C)C(CCC4C5(C)CCC(OC(=O)Cc6cc(OC)ccc6OC)C(C)(C)C5CCC43C)C12` (stereo not shown) [MJ1108-RS], the “Endothelial ECV304 (ED50)” value in assay [1] came out at 1.8 µg/mL. The “Prostate DU145 (ED50)” value in assay [2] is 1 µg/mL. Also, in assay [3], the “Lung L132 (ED50)” value was found to be 4.6 µg/mL. Moreover, the “Colon HT-29 (ED50)” value in assay [5] is over 10 µg/mL.
